From patent publication US9440957B2, “Compounds and compositions for modulating EGFR Activity” (Novartis AG, priority 2012, dated 2016)
pIC50: −log10 of the molar value. Read-outs that look alike come from different tables or passages of the source.

Key:
[1] = target: human EGFR L858R/T790M (NIH/3T3 cells) (Homo sapiens, UniProt P00533, L858R/T790M); assay: EGFR target modulation in engineered NIH/3T3 cell lines (phospho-EGFR Y1068 AlphaLISA), EGFR L858R/T790M; assay type: cell-based; settings: engineered NIH/3T3 cells, read-out: NIH3T3 IC50 (μM) EGFR (L858R/T790M)
human EGFR L858R/T790M (NIH/3T3 cells), sequence (P00533 25-1210 T790M/L858R): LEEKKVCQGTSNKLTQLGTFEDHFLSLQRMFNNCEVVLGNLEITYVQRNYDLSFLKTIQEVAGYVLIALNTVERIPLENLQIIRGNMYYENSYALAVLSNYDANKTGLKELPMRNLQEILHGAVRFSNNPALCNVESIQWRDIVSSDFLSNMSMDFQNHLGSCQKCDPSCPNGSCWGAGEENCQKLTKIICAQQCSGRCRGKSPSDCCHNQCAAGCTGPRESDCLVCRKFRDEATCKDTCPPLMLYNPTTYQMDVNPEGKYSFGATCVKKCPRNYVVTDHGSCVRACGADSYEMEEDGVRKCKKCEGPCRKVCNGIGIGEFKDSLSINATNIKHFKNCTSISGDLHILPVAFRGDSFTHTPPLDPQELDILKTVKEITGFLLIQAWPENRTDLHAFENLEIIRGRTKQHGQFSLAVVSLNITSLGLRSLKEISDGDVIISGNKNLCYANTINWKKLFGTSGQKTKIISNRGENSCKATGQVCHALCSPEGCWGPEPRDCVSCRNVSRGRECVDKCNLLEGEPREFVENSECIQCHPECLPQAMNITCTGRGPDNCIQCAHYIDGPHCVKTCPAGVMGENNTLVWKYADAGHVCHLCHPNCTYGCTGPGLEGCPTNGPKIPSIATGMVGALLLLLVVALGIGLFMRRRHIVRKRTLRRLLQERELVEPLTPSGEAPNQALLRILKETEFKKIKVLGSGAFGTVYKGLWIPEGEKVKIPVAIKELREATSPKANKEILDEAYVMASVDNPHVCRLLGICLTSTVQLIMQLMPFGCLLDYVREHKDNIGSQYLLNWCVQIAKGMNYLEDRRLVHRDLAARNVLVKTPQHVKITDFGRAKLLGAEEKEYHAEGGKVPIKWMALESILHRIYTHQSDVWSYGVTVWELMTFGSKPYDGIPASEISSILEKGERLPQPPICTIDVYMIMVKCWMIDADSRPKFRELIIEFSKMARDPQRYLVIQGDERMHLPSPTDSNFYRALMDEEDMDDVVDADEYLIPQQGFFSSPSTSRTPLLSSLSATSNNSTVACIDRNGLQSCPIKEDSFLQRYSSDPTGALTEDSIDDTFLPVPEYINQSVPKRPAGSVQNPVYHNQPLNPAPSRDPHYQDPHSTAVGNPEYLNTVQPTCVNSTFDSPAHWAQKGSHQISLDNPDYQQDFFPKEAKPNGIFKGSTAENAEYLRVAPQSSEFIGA
Summary of the method: (§1)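 Engineered NIH/3T3 cells expressing EGFR variants treated 3 h at 37 °C with 12-point 1:3 compound series (top stock 10 μM); only WT cells stimulated with 50 ng/ml EGF for 5 min before lysis. Phospho-Y1068 measured by AlphaLISA with total-EGFR antibody; IC50 from non-linear fitting.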

H3255 (EGFR L858R) = H3255 (EGFR L858R) (Homo sapiens, UniProt P00533, L858R); assay: EGFR target modulation in H3255 cell line (phospho-EGFR Y1173 ELISA); assay type: cell-based
Summary of the method: (§2)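 Cells grown in 10% FBS/RPMI, plated overnight at 37 °C, then treated with serially diluted compounds for 3 h. Lysates were analysed by sandwich ELISA (anti-EGFR capture, chemiluminescent readout).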

EGFR(L858R/T790M) = target: T1, EGFR(L858R/T790M) (Homo sapiens, UniProt P00533, L858R/T790M); assay: EGFR biochemical assay (HTRF), IC50 determinations
T1 construct: purchased from Carna (GST-a.a. 669-1210)
Summary of the method: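 HTRF kinase reaction with biotin-TK peptide at room temperature, quenched with EDTA at 60 min and detected with PT66K/SAXL after 1 h. Without preincubation, enzyme starts the reaction with compound, ATP and peptide present. With preincubation, compound, enzyme and peptide sit at room temperature for a set time before ATP is added.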

[2] = target: human EGFR L858R (NIH/3T3 cells) (Homo sapiens, UniProt P00533, L858R); assay: EGFR target modulation in engineered NIH/3T3 cell lines (phospho-EGFR Y1068 AlphaLISA), EGFR L858R; assay type: cell-based; settings: engineered NIH/3T3 cells, read-out: NIH3T3 IC50 (μM) EGFR (L858R)
Summary of the method: as §1

HCC827 (Del E746-A750) = HCC827 (Del E746-A750) (Homo sapiens, UniProt P00533, DEL746-750); assay: EGFR target modulation in HCC827 cell line (phospho-EGFR Y1173 ELISA); assay type: cell-based
Procedure: EGFR Target Modulation in H1975, H3255 and HCC827 Cell Lines Tissue Culture. Cells were maintained in 10% FBS/RPMI supplemented with 100 μg/ml Penicillin/Streptomycin (Hyclone #SH30236.01). […] The cells were allowed to incubate overnight in a 37° C., 5% CO2 humidified tissue culture incubator. […] The serial diluted compounds were transferred to the plate containing cells by using a 50 nl Pin Head device (Perkin Elmer) and the cells were placed back in the incubator for 3 hours. Phospho-EGFR ([…]) Target Modulation Assay. The media was reduced to 20 ul using a Bio-Tek ELx 405 SelectTM plate washer. […] The plates were shaken at 4° C. for 20 minutes. An aliquot of 25 ul from each well was transferred to pEGFR(Y1173) ELISA plates for analysis. Phospho-EGFR ([…]) ELISA. Solid white high-binding ELISA plates (Greiner #781074) were coated with 5 ug/ml anti-EGFR capture antibody (R&D Systems #AF231) overnight in 50 mM carbonate/bicarbonate pH 9.5 buffer. Plates were blocked with 1% BSA (Sigma #A7030) in PBS for 1 hour at room temperature. Wash steps were carried out with a Bio-Tek ELx405 SelectTM using 4 cycles of 100 ul TBS-T (20 mM Tris, 137 mM NaCl, 0.05% Tween-20) per well. […] Lysis was allowed to occur for 20 minutes on ice. A 25 ul aliquot was added to each well of the blocked ELISA plate and incubated overnight at 4° C. with gentle shaking. […] After washing, 1:2,000 anti-rabbit-HRP (Cell Signaling #7074) in 0.2% BSA/TBS-T was added and incubated for 1 hour at room temperature. Chemiluminescent detection was carried out with SuperSignal ELISA Pico substrate (ThermoScientific #37069). Signal was read on EnVision plate reader using built-in UltraLUM setting. Data Analysis. Control cells treated with EGF were set to 100% maximum response. […] With these parameters, the IC50's for each compound in each cell line was calculated using non-linear curve fitting analysis.

HEKn (EGFR WT) = HEKn (EGFR WT) (Homo sapiens, UniProt P00533); assay: EGFR target modulation in HEKn (EGFR-WT) cell line (phospho-EGFR Y1173 ELISA); assay type: cell-based; settings: value outside parentheses
HEKn (EGFR WT), sequence (P00533 25-1210): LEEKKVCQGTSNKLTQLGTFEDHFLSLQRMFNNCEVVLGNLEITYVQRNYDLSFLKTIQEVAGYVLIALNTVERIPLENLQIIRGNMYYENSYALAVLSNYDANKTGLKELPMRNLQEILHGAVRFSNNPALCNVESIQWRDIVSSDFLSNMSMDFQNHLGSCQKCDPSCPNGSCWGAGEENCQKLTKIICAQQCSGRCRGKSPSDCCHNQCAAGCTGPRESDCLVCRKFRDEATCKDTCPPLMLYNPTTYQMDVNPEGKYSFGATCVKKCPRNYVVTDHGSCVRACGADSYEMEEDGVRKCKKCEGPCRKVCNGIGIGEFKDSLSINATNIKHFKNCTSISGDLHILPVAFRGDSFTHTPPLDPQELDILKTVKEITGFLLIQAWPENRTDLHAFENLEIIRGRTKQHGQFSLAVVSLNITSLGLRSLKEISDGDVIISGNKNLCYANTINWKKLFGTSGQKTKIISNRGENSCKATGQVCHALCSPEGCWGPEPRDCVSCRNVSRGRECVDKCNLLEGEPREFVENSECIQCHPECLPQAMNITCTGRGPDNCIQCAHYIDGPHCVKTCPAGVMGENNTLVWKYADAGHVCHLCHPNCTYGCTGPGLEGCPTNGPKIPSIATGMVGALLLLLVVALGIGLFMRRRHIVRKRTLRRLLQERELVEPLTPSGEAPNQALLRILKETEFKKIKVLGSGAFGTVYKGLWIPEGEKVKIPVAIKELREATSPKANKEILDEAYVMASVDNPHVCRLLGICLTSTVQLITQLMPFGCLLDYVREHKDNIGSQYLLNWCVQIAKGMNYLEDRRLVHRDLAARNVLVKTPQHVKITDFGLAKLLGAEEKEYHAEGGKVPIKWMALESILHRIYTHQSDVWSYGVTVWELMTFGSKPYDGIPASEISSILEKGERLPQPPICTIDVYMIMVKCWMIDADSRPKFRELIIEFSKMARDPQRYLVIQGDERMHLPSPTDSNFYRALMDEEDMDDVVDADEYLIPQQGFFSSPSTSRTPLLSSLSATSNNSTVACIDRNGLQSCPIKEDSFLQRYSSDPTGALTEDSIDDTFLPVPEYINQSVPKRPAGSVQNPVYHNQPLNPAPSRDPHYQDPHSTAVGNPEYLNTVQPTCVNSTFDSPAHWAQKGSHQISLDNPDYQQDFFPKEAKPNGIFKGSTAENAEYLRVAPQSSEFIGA
Summary of the method: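 Primary neonatal human keratinocytes (EGFR WT) were exposed to serially diluted compounds for 3 h, then lysed on ice. Phospho-EGFR Y1173 was measured by chemiluminescent sandwich ELISA using anti-EGFR capture.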

[3] = target: human EGFR WT (NIH/3T3 cells, EGF-induced) (Homo sapiens, UniProt P00533); assay: EGFR target modulation in engineered NIH/3T3 cell lines (phospho-EGFR Y1068 AlphaLISA), EGFR WT; assay type: cell-based; settings: engineered NIH/3T3 cells, read-out: NIH3T3 IC50 (μM) EGFR (WT)
human EGFR WT (NIH/3T3 cells, EGF-induced), sequence (P00533 25-1210): as above
Summary of the method: as §1

H1975 (EGFR L858/T790M) = H1975 (EGFR L858/T790M) (Homo sapiens, UniProt P00533, L858R/T790M); assay: EGFR target modulation in H1975 cell line (phospho-EGFR Y1173 ELISA); assay type: cell-based
H1975 (EGFR L858/T790M), sequence (P00533 25-1210 T790M/L858R): as the sequence (P00533 25-1210 T790M/L858R) above
Summary of the method: as §2

[4] = EGFR (L858R/T790M) with 90 min pre-incubation, read-out: IC50 (μM) Column B
[5] = EGFR (L858R/T790M) with no pre-incubation, read-out: IC50 (μM) Column A

Row | Structure (SMILES) | IC50 [1] | pIC50 (H3255 (EGFR L858R)) | IC50 (EGFR(L858R/T790M); [4]) | IC50 (EGFR(L858R/T790M); [5]) | IC50 [2] | pIC50 (HCC827 (Del E746-A750)) | pIC50 (HEKn (EGFR WT)) | IC50 [3] | pIC50 (H1975 (EGFR L858/T790M))
1 | C=CC(=O)N1CCC[C@@H](n2c(NC(=O)c3cccc(C(F)(F)F)c3)nc3cc(C)ccc32)C1 [Example 17-105] | 0.012 µM | 6.61 | – | – | 0.149 µM | 6.68 | < 5.00 | > 10 µM | 7.57
2 | CO[C@H]1CCN(C/C=C/C(=O)N2CCCC[C@@H](n3c(NC(=O)c4ccnc(C)c4)nc4cccc(Cl)c43)C2)C1 [Example 3-5] | 0.006 µM | 7.92 | < 0.001 µM | 0.007 µM | 0.006 µM | > 9.00 | 6.24 | 0.259 µM | 8.10
3 | Cc1cc(C(=O)Nc2nc3cccc(Cl)c3n2[C@@H]2CCCCN(C(=O)/C=C/CN3CC(F)C3)C2)ccn1 [Example 2, (R,E)-N-(7-chloro-1-(1-(4-(3-fluoroazetidin-1-yl)but-2-enoyl)azepan-3-yl)-1H-benzo[d]imidazol-2-yl)-2-methylisonicotinamide] | 0.011 µM | 7.82 | < 0.001 µM | 0.01 µM | 0.008 µM | > 9.00 | 6.04 | 0.183 µM | 8.00
4 | C=CC(=O)N1CCC[C@@H](n2c(NC(=O)c3cccc(C(F)(F)F)c3)nc3cc(CN4CCCC4)ccc32)C1 [Example 17-117] | 0.006 µM | 6.54 | 0.004 µM | 0.036 µM | 0.05 µM | 6.61 | < 5.00 | 6.4 µM | 7.89
5 | C=CC(=O)N1CCC[C@@H](n2c(NC(=O)c3cccc(C(F)(F)F)c3)nc3cc(CN4CCOCC4)ccc32)C1 [Example 17-112] | 0.006 µM | 6.81 | 0.003 µM | 0.04 µM | 0.04 µM | 6.87 | < 5.00 | > 10 µM | 7.82
6 | C=CC(=O)N1CCC[C@@H](n2c(NC(=O)c3cccc(C(F)(F)F)c3)nc3cccc(C)c32)C1 [Example 17-106] | 0.007 µM | 7.08 | 0.002 µM | 0.038 µM | 0.124 µM | 6.82 | < 5.00 | > 10 µM | 8.05
7 | C=CC(=O)N1CCCC[C@@H](n2c(NC(=O)c3cccc(C(F)(F)F)c3)nc3cccc(C(F)(F)F)c32)C1 [Example 17-12] | 0.008 µM | 6.83 | 0.003 µM | 0.064 µM | 0.052 µM | 7.52 | < 5.00 | 4.4 µM | 8.00
8 | C=CC(=O)N1CCC[C@@H](n2c(NC(=O)c3cccc(C(F)(F)F)c3)nc3cc(CN(C)C(C)=O)ccc32)C1 [Example 17-119] | 0.008 µM | 6.93 | 0.008 µM | 0.062 µM | 0.051 µM | 7.15 | < 5.16 | 5 µM | 8.00
9 | COc1cccc2nc(NC(=O)c3ccnc(C)c3)n([C@@H]3CCCCN(C(=O)/C=C/CN(C)C)C3)c12 [Example 17-176] | – | 7.70 | < 0.001 µM | 0.018 µM | – | 8.40 | 6.06 | – | 7.85
10 | C/C=C/C(=O)N1CCCC[C@@H](n2c(NC(=O)c3ccnc(C)c3)nc3cc(CN4CC[C@@H](OC)C4)cc(C)c32)C1 [Example 17-163] | – | 7.29 | 0.005 µM | 0.07 µM | – | 7.96 | 5.90 | – | 7.37
11 | C/C=C/C(=O)N1CCCC[C@@H](n2c(NC(=O)c3cc(C)nc(C)c3)nc3cc(CN4CC[C@H](F)C4)cc(C)c32)C1 [Example 17-165] | – | 7.30 | 0.004 µM | 0.054 µM | – | 7.51 | 5.35 | – | 7.41

The remaining lines, values ahead:

Row | IC50 [1] | pIC50 (H3255 (EGFR L858R)) | IC50 (EGFR(L858R/T790M); [4]) | IC50 (EGFR(L858R/T790M); [5]) | IC50 [2] | pIC50 (HCC827 (Del E746-A750)) | pIC50 (HEKn (EGFR WT)) | IC50 [3] | pIC50 (H1975 (EGFR L858/T790M)) | Structure (SMILES)
12 | 0.005 µM | 8.15 | < 0.001 µM | 0.005 µM | 0.003 µM | > 9.00 | 6.49 | 0.058 µM | 8.22 | CO[C@@H]1CCN(C/C=C/C(=O)N2CCCC[C@@H](n3c(NC(=O)c4ccnc(C)c4)nc4cccc(Cl)c43)C2)C1 [Example 3-4]
13 | 0.001 µM | 9.00 | < 0.001 µM | 0.001 µM | < 0.001 µM | > 9.00 | 7.44 | 0.014 µM | > 9.00 | C=CC(=O)N1CCCC[C@@H](n2c(NC(=O)c3ccnc(C)c3)nc3cc(CN4CCC(F)(F)C4)cc(C)c32)C1 [Example 17-151]
14 | 0.004 µM | 7.92 | < 0.001 µM | 0.007 µM | 0.004 µM | 8.70 | 6.35 | 0.152 µM | 8.10 | Cc1cc(C(=O)Nc2nc3cccc(Cl)c3n2[C@@H]2CCCCN(C(=O)/C=C/CN3CCCC3)C2)ccn1 [Example 1, (R,E)-N-(7-chloro-1-(1-(4-(pyrrolidin-1-yl)but-2-enoyl)azepan-3-yl)-1H-benzo[d]imidazol-2-yl)-2-methylisonicotinamide]
15 | 0.002 µM | 8.70 | < 0.001 µM | 0.002 µM | 0.002 µM | > 9.00 | 7.21 | 0.065 µM | 8.70 | C=CC(=O)N1CCCC[C@@H](n2c(NC(=O)c3ccnc(C)c3)nc3cc(CN4CCS(=O)(=O)CC4)cc(C)c32)C1 [Example 17-155]
16 | – | 8.00 | < 0.001 µM | 0.009 µM | – | 8.40 | 6.71 | – | 8.05 | O=C(Nc1nc2cccc(Cl)c2n1[C@@H]1CCCCN(C(=O)/C=C/CN2CCCC2)C1)c1ccnnc1 [Example 3-8]
17 | 0.001 µM | 8.70 | < 0.001 µM | 0.002 µM | 0.001 µM | > 9.00 | 7.21 | 0.037 µM | > 9.00 | C=CC(=O)N1CCCC[C@@H](n2c(NC(=O)c3ccnc(C)c3)nc3cc(CN4CC(F)(F)C4)cc(C)c32)C1 [Example 17-153]
18 | – | 8.15 | < 0.001 µM | 0.003 µM | – | 8.70 | 6.51 | – | 8.70 | C=CC(=O)N1CCCC[C@@H](n2c(NC(=O)c3cc(C)nc(C)c3)nc3cc(CN4CC[C@@H](OC)C4)cc(C)c32)C1 [Example 17-157]
19 | – | 8.70 | < 0.001 µM | 0.001 µM | – | > 9.00 | 6.89 | – | > 9.00 | C=CC(=O)N1CCCC[C@@H](n2c(NC(=O)c3cc(C)nc(C)c3)nc3cc(CN4CC[C@H](OC)C4)cc(C)c32)C1 [Example 17-156]
